Experimental data published in patent publication US4816562A, “Novel substrate for plasma kallikrein and a method for measuring biological components using the same” (Nitto Boseki Co., Ltd., priority 1985, dated 1989).
Values joined by “and” are separate entries in the source; they are usually repeats but may differ in a detail not shown here. Equal entries are not always repeated. Where a SMILES comes first, the peptide text is derived from it. [ ]: non-standard residue; d: D form. The star is where a group is joined. pNA = O=[N+]([O-])c1ccc(N*)cc1

How the values were obtained:
Plasma kallikrein (HPK) = biological target: T1, Plasma kallikrein (HPK) (Homo sapiens, UniProt P03952); experiment: Substrate specificity: reaction of chromogenic substrates with plasma kallikrein, absorbance read-out; type: biochemical; settings: for Absorbance (O.D.) HPK: S0 = 2.0 mM, 37° C., 5 minutes, pH 9.0; for Relative reactivity with HPK: PS-2203N taken as 100, initial substrate concentration S0 = 2 mM
T1 construct: purchased AB Kabi Diagnostica Lot No. 3740152 (catalogue number not given)
Method: (§1) The specificities of the novel substrates synthesized above were examined by reacting them with various enzymes.
(§2) (1) Substrate solution: 2 mmoles/liter H2 O
(§3) (2) Buffer solution: Concentrations of Tris, NaCl and CaCl2 and pH value of reaction for every enzyme were as follows: […]
(§4) Into a silicone-treated test tube made of hard glass or a plastic were introduced 0.3 ml of a buffer solution and 0.1 ml of an enzyme reagent. After preheating them for 5 minutes in a thermostated bath kept at 37° C., 0.1 ml of substrate solution was added and an enzyme reaction was carried out at 37° C. for 5 minutes. When an exact five minutes had passed, 2.0 ml of the reaction stopper or the reaction-stopping color-forming reagent was added to stop the enzyme reaction, and subsequently the reaction mixture was allowed to stand at 37° C. for 10 minutes. Then, absorbance was measured at 405 nm or 700 nm.

[1] = biological target: T2, Glandular kallikrein (HGK) (Homo sapiens, UniProt P06870); experiment: Substrate specificity: reaction of chromogenic substrates with glandular kallikrein, absorbance read-out; type: biochemical, Human urine; settings: for Absorbance (O.D.) HGK: S0 = 2.0 mM, 37° C., 5 minutes, pH 9.0; for Relative reactivity with HGK: PS-2203N taken as 100, initial substrate concentration S0 = 2 mM; for Reactivity with glandular kallikrein: relative to Z-D-Orn-Phe-Arg-PNA (PS-2203N) as 100
T2 construct: purchased Green Cross Lot No. 1003SM (catalogue number not given); host or cells: human urine
Method: as §1, §2, §3, §4

Thrombin (TH) = biological target: T3, Thrombin (TH) (Bos taurus, UniProt P00735); experiment: Substrate specificity: reaction of chromogenic substrates with thrombin, absorbance read-out; type: biochemical, Bovine; settings: for Absorbance (O.D.) TH: S0 = 2.0 mM, 37° C., 5 minutes, pH 8.5; for Relative reactivity with TH: PS-2203N taken as 100, initial substrate concentration S0 = 2 mM; for Reactivity with thrombin: relative to Z-D-Orn-Phe-Arg-PNA (PS-2203N) as 100
T3 construct: purchased Mochida Pharmaceutical Lot No. 65146 (catalogue number not given)
Method: as §1, §2, §3, §4

Plasmin (PL) = biological target: T4, Plasmin (PL) (Homo sapiens, UniProt P00747); experiment: Substrate specificity: reaction of chromogenic substrates with plasmin, absorbance read-out; type: biochemical; settings: for Absorbance (O.D.) PL: S0 = 2.0 mM, 37° C., 5 minutes, pH 7.8; for Relative reactivity with PL: PS-2203N taken as 100, initial substrate concentration S0 = 2 mM; for Reactivity with plasmin: relative to Z-D-Orn-Phe-Arg-PNA (PS-2203N) as 100
T4 construct: purchased Green Cross Lot No. PL-35 (catalogue number not given)
Method: as §1, §2, §3, §4

Xa factor (FXa) = biological target: T5, Xa factor (FXa) (Bos taurus, UniProt P00743); experiment: Substrate specificity: reaction of chromogenic substrates with Xa factor, absorbance read-out; type: biochemical, Bovine; settings: for Absorbance (O.D.) FXa: S0 = 2.0 mM, 37° C., 5 minutes, pH 8.3; for Relative reactivity with FXa: PS-2203N taken as 100, initial substrate concentration S0 = 2 mM; for Reactivity with Xa factor: relative to Z-D-Orn-Phe-Arg-PNA (PS-2203N) as 100
T5 construct: purchased Sigma Lot No. 73F-9450 (catalogue number not given)
Method: as §1, §2, §3, §4

Urokinase (UK) = biological target: T6, Urokinase (UK) (Homo sapiens, UniProt P00749); experiment: Substrate specificity: reaction of chromogenic substrates with urokinase, absorbance read-out; type: biochemical; settings: for Absorbance (O.D.) UK: S0 = 2.0 mM, 37° C., 5 minutes, pH 8.2; for Relative reactivity with UK: PS-2203N taken as 100, initial substrate concentration S0 = 2 mM
T6 construct: purchased Mochida Pharmaceutical Lot No. 2A-139 (catalogue number not given)
Method: as §1, §2, §3, §4

[2] = 700 nm (CHA substrates, pentaamine ferroate)

T2 sequence (P06870 25-262): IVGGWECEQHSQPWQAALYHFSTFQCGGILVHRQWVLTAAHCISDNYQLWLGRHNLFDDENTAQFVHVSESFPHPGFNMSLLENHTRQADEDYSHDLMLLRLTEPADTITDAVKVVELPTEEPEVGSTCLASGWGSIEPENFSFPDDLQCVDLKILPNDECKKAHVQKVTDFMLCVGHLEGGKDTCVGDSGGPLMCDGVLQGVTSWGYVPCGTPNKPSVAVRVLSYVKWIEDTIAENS
T1 sequence (P03952 391-638 limits assumed): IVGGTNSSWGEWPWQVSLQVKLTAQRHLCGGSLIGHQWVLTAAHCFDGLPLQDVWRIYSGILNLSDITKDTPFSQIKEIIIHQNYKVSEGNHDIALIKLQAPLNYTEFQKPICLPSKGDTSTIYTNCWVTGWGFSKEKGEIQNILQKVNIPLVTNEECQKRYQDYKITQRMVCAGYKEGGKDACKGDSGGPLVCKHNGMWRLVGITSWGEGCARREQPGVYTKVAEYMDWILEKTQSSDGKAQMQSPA
T1 sequence (P03952 20-390 partner limits assumed): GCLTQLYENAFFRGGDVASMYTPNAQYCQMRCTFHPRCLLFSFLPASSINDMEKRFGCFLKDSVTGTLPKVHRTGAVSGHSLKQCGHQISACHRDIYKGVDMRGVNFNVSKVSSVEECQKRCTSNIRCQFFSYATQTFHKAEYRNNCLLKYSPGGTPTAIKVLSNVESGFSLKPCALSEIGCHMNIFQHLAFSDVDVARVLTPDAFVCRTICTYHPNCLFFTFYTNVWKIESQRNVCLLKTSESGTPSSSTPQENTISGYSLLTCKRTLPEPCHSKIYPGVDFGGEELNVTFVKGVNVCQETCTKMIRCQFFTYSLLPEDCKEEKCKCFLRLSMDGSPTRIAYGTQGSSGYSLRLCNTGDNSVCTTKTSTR
T4 sequence (P00747 581-810 limits assumed): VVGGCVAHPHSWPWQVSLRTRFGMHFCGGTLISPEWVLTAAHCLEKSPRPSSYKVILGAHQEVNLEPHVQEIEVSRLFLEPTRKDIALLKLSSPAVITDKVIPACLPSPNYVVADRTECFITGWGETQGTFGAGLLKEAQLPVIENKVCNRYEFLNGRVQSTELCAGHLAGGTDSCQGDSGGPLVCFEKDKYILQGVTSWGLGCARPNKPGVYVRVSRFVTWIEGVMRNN
T4 sequence (P00747 97-580 partner limits assumed): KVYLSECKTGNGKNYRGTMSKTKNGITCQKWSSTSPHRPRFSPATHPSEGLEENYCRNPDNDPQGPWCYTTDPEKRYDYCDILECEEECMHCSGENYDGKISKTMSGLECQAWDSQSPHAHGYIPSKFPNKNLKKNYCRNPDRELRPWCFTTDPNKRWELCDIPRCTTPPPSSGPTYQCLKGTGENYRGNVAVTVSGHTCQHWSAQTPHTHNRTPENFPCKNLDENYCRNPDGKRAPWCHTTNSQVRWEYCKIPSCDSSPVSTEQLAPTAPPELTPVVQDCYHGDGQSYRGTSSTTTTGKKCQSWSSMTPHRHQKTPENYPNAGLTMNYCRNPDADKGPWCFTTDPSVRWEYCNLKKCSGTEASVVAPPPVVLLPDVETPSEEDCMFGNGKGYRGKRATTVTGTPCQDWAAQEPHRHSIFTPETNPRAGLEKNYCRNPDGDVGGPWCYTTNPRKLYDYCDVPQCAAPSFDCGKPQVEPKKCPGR
T5 sequence (P00743 234-492 limits assumed): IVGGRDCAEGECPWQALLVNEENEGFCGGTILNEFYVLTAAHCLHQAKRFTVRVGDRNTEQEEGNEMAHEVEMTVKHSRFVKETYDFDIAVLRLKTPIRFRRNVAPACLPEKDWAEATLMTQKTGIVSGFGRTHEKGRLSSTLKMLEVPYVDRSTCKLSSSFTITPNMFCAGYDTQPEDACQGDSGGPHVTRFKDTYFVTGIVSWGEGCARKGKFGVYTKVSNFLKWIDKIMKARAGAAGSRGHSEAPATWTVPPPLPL
T5 sequence (P00743 41-180 partner limits assumed): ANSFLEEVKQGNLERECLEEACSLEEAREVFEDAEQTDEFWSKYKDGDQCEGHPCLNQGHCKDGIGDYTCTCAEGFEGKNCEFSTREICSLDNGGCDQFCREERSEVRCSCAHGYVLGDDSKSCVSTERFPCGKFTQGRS

Compound | Relative reactivity with HPK (Plasma kallikrein (HPK)) | Relative reactivity with HGK [1] | Relative reactivity with TH (Thrombin (TH)) | Relative reactivity with PL (Plasmin (PL)) | Relative reactivity with FXa (Xa factor (FXa)) | Relative reactivity with UK (Urokinase (UK)) | Absorbance (O.D.) HPK (Plasma kallikrein (HPK); [2]) | Absorbance (O.D.) HGK [1, 2] | Absorbance (O.D.) TH (Thrombin (TH); [2]) | Absorbance (O.D.) PL (Plasmin (PL); [2]) | Absorbance (O.D.) FXa (Xa factor (FXa); [2]) | Absorbance (O.D.) UK (Urokinase (UK); [2]) | also measured
N=C(N)NCCC[C@H](NC(=O)[C@H](Cc1ccccc1)NC(=O)[C@H]1CCCN1)C(=O)Nc1ccc([N+](=O)[O-])cc1 [S-2302, H-D-Pro-Phe-Arg-PNA, reference compound] (H-[dP]-Phe-Arg-pNA) | 131 | 169 | 269 | 48 | 169 | 50 | – | – | – | – | – | – | Absorbance (O.D.) HPK (Plasma kallikrein (HPK); 405 nm (PNA substrates)): 0.325 O.D.; Absorbance (O.D.) HGK ([1]; 405 nm (PNA substrates)): 0.021 O.D.; Reactivity with glandular kallikrein [1]: 169%; Absorbance (O.D.) TH (Thrombin (TH); 405 nm (PNA substrates)): 0.152 O.D.; Reactivity with thrombin (Thrombin (TH)): 269%; Absorbance (O.D.) PL (Plasmin (PL); 405 nm (PNA substrates)): 0.121 O.D.; Reactivity with plasmin (Plasmin (PL)): 48%; Absorbance (O.D.) FXa (Xa factor (FXa); 405 nm (PNA substrates)): 0.389 O.D.; Reactivity with Xa factor (Xa factor (FXa)): 169%; Absorbance (O.D.) UK (Urokinase (UK); 405 nm (PNA substrates)): 0.011 O.D.; Reactivity with urokinase (Urokinase (UK); relative to Z-D-Orn-Phe-Arg-PNA (PS-2203N) as 100): 50%
MOC--D-Lys--Phe--Arg--CHA.2HCl [PS-2204] | – | – | – | – | – | – | 0.301 O.D. | 0.016 O.D. | 0.010 O.D. | 0.107 O.D. | 0.046 O.D. | 0.0 O.D. | –
SBz--D-Lys--Phe--Arg--CHA.2HCl [PS-2206] | – | – | – | – | – | – | 0.234 O.D. | 0.010 O.D. | 0.007 O.D. | 0.094 O.D. | 0.016 O.D. | 0.0 O.D. | –
Tos-D-Lys-Phe-Arg-CHA.2HCl [PS-2205] | – | – | – | – | – | – | 0.255 O.D. | 0.014 O.D. | 0.015 O.D. | 0.158 O.D. | 0.010 O.D. | 0.0 O.D. | –
Z--D-Lys--Phe--Arg--CHA.2HCl [PS-2200] | – | – | – | – | – | – | 0.316 O.D. | 0.010 O.D. | 0.009 O.D. | 0.094 O.D. | 0.046 O.D. | 0.002 O.D. | –
Z-D-Orn-Phe-Arg-CHA [PS-2203] | 59 | 15 | 2 | 14 | 4 | 0 | 0.331 O.D. | 0.005 O.D. | 0.007 O.D. | 0.079 O.D. | 0.022 O.D. | 0.0 O.D. | Reactivity with glandular kallikrein [1]: 15%; Reactivity with thrombin (Thrombin (TH)): 2%; Reactivity with plasmin (Plasmin (PL)): 14%; Reactivity with Xa factor (Xa factor (FXa)): 4%
Z-D-Orn-Phe-Arg-PNA [PS-2203N, reference compound] | 100 | 100 | 100 | 100 | 100 | 100 | – | – | – | – | – | – | Absorbance (O.D.) HPK (Plasma kallikrein (HPK); 405 nm (PNA substrates)): 0.250 O.D. and 0.249 O.D.; Absorbance (O.D.) HGK ([1]; 405 nm (PNA substrates)): 0.013 O.D.; Absorbance (O.D.) TH (Thrombin (TH); 405 nm (PNA substrates)): 0.056 O.D.; Absorbance (O.D.) PL (Plasmin (PL); 405 nm (PNA substrates)): 0.250 O.D.; Absorbance (O.D.) FXa (Xa factor (FXa); 405 nm (PNA substrates)): 0.230 O.D.; Absorbance (O.D.) UK (Urokinase (UK); 405 nm (PNA substrates)): 0.021 O.D.
i-BOC--D-Lys--Phe--Arg--CHA.2HCl [PS-2202] | – | – | – | – | – | – | 0.245 O.D. | 0.006 O.D. | 0.005 O.D. | 0.128 O.D. | 0.040 O.D. | 0.0 O.D. | –
